From patent US20260217706A1, “HETEROCYCLIC COMPOUNDS, PREPARATION METHOD THEREFOR AND USE THEREOF” (GUANGZHOU YUFAN NANTU BIOTECHNOLOGIES CO., LTD, priority 2023, published 2026)

Experiments:
[1] = system: anti-CD3 activated human PBMCs; assay: Effect of compounds on the level of IL-2 secretion by anti-CD3 activated human PBMCs (IL-2 ELISA); format: cell-based; settings: compound concentration at which fold change in IL-2 = 5; hPBMCs, CD3 antibody 2 μg/mL, 48 h, compound from 3 μM
Experimental: 2. Inoculate the resuspended cells into a 96-well cell culture plate at 200 ul/well of cell suspension, and incubate in a 37° C. cell incubator for 1 h;
3. Adjust the compound concentration with DMSO, starting at a final concentration of 3 μM, and perform a 3-fold dilution sequentially for 10 concentration gradients, with an additional DMSO control well set up; and
4. Adjust the CD3 antibody to an appropriate concentration to achieve a final concentration of 2 μg/mL, mix thoroughly, and incubate in a 37° C. cell incubator for 48h.
5. After 48 h, centrifuge at 1500 rpm for 5 min to collect the supernatant of the culture medium for the human IL-2 ELISA test.
The OD values obtained from the ELISA test are converted into the fold change (FC) in IL-2 concentration. […] The EC50 is calculated using GraphPad Prism. When the fold change=5, the corresponding compound concentration is CFC=5 (in nM).

CBL-B protein = CBL-B protein (Homo sapiens, UniProt Q13191); assay: CBL-B binding experiment (Streptavidin-Tb cryptate / Ligand L1 displacement); settings: 8 nM CBL-B protein, 25° C., 60 minutes; Ki=Relative IC50/2
How it was run: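 Buffer was 20 mM HEPES pH 7.5, 150 mM NaCl, 0.01% Triton X-100, 0.5 mM TCEP and BSA. Ten-point compound dilutions were incubated with 8 nM CBL-B for 60 min at 25° C., then read by luminescence after another 60 min at room temperature. IC50 came from a four-parameter fit, with Ki = relative IC50/2.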

CBL-B protein, sequence (Q13191 whole entry): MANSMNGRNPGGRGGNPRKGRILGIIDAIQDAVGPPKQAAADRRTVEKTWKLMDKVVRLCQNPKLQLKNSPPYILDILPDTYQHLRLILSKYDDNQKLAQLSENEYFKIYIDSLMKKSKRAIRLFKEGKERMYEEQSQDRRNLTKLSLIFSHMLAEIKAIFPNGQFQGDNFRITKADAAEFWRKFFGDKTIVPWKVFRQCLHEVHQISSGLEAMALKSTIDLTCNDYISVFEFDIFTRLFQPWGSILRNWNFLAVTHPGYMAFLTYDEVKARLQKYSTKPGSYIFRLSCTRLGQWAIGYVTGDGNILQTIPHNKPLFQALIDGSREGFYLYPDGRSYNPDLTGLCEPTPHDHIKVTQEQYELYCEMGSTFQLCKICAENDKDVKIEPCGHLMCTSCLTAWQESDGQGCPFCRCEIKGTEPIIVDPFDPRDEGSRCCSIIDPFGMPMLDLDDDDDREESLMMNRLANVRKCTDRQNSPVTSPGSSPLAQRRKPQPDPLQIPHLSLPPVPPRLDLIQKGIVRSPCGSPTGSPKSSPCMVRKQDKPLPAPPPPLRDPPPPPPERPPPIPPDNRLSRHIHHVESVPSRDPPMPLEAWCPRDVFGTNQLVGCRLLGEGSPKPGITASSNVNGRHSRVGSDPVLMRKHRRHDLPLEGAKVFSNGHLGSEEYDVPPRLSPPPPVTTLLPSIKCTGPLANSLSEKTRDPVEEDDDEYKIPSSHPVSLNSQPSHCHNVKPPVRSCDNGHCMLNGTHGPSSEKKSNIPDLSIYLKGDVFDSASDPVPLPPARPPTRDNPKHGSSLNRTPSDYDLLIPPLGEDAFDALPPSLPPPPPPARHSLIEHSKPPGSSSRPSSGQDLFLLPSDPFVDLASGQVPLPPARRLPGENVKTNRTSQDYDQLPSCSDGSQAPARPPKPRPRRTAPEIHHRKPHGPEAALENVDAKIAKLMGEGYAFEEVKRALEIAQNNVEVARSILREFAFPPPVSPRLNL

**Q.** With `C[C@H]1CCCN(Cc2cc(C(F)(F)F)c3cn(-c4cccc([C@]5(c6nncn6C)C[C@@H](C)C5)c4)c(=O)n3c2)C1` (racemic) [Compound T140, 2-(3-((1s,3R)-3-methyl-1-(4-methyl-4H-1,2,4-triazol-3-yl)cyclobutyl)phenyl)-6-(((S)-3-methylpiperidin-1-yl)methy 1)-8-(trifluoromethyl)imidazo[1,5-a]pyridin-3(2H)-one] as the molecule, how does the “IL-2 CFC=5/nM” value [1] read?
**A.** The value was under 500 nM.

**Q.** What about the Ki (CBL-B protein) of the same molecule?
**A.** The Ki was under 50 nM.

**Q.** `CCN(C)Cc1cc2c(C(F)(F)F)cn(-c3cccc(C4(c5nncn5C)CCC4)c3)c(=O)c2[nH]1` [Compound T002, 2-((ethyl(methyl)amino)methyl)-6-(3-(1-(4-methyl-4H-1,2,4-triazol-3-yl)cyclobutyl)phenyl)-4-(trifluoromethyl)-1,6-dihydro-7H-pyrrolo[2,3-c]pyridin-7-one] was tested. Which “IL-2 CFC=5/nM” value [1] did it give?
**A.** The value was under 500 nM.

**Q.** And the Ki (CBL-B protein)?
**A.** The Ki was under 50 nM.

**Q.** `CCN(CC)Cc1cc2c(C(F)(F)F)cn(-c3cccc(C4(c5nncn5C)CCC4)c3)c(=O)c2[nH]1` [Compound T005, 2-(diethylaminomethyl)-6-[3-[1-(4-methyl-1,2,4-triazol-3-yl)cyclobutyl]phenyl]-4-(trifluoromethyl)-1H-pyrrolo[2,3-c]pyridin-7-one] was tested. Which “IL-2 CFC=5/nM” value [1] did it give?
**A.** Its value is under 500 nM.

**Q.** What about the Ki (CBL-B protein) of the same molecule?
**A.** Its Ki is under 50 nM.

**Q.** `Cn1cnnc1C1(c2cccc(-n3cc(C(F)(F)F)c4cc(CN5CC6CC6C5)[nH]c4c3=O)c2)CCC1` (stereo not drawn) [Compound T007, 2-((3-azabicyclo[3.1.0]hexan-3-yl)methyl)-6-(3-(1-(4-methyl-4H-1,2,4-triazol-3-yl)cyclobutyl)phenyl)-4-(trifluoromethyl)-1,6-dihydro-7H-pyrrolo[2,3-c]pyridin-7-one] was tested. Which “IL-2 CFC=5/nM” value [1] did it give?
**A.** Its value is under 500 nM.

**Q.** What about the Ki (CBL-B protein) of the same molecule?
**A.** The Ki was under 50 nM.

**Q.** What does the source list for `Cn1cnnc1C1(c2cccc(-n3cc(C(F)(F)F)c4cc(CNCCC5CC5)[nH]c4c3=O)c2)CCC1` [Compound T008, 2-[(2-cyclopropylethylamino)methyl]-6-[3-[1-(4-methyl-1,2,4-triazol-3-yl)cyclobutyl]phenyl]-4-(trifluoromethyl)-1H-pyrrolo[2,3-c]pyridin-7-one]?
**A.** IL-2 CFC=5/nM [1]: <500 nM; Ki (CBL-B protein): < 50 nM

**Q.** For `Cn1cnnc1C1(c2cccc(-n3cc(C(F)(F)F)c4cc(CNC5(C)CCC5)[nH]c4c3=O)c2)CCC1` [Compound T009, 2-[[(1-methylcyclobutyl)amino]methyl]-6-[3-[1-(4-methyl-1,2,4-triazol-3-yl)cyclobutyl]phenyl]-4-(trifluoromethyl)-1H-pyrrolo[2,3-c]pyridin-7-one], which “IL-2 CFC=5/nM” value [1] is on record?
**A.** The value was under 500 nM.

**Q.** And the Ki (CBL-B protein)?
**A.** Its Ki is under 50 nM.

**Q.** For `C[C@H]1CCCN(Cc2cc3c(C4CC4)cn(-c4cccc(C5(Cc6nncn6C)CCC5)c4)c(=O)c3[nH]2)C1` [Compound T010, 4-cyclopropyl-2-[[(3S)-3-methyl-1-piperidyl]methyl]-6-[3-[1-[(4-methyl-1,2,4-triazol-3-yl)methyl]cyclobutyl]phenyl]-1H-pyrrolo[2,3-c]pyridin-7-one], which “IL-2 CFC=5/nM” value [1] is on record?
**A.** Its value is under 500 nM.

**Q.** And the Ki (CBL-B protein)?
**A.** Its Ki is under 50 nM.

**Q.** Which results are given for `C[C@H]1CCCN(Cc2cc3c(C4CC4)cn(-c4cccc([C@@H](c5nncn5C)C5CCC5)c4)c(=O)c3[nH]2)C1` [Compound T013, 6-(3-((S)-cyclobutyl(4-methyl-4H-1,2,4-triazol-3-yl)methyl)phenyl)-4-cyclopropyl-2-(((S)-3-methylpiperidin-1-yl)methyl)-1,6-dihydro-7H-pyrrolo[2,3-c]pyridin-7-one]?
**A.** IL-2 CFC=5/nM [1]: <500 nM; Ki (CBL-B protein): < 50 nM

**Q.** What does the source list for `C[C@H]1CCCN(Cc2cc3c(C(F)(F)F)cn(-c4cccc(C(C)(C)c5nncn5C)c4)c(=O)c3[nH]2)C1` [Compound T017, 6-[3-[1-methyl-1-(4-methyl-1,2,4-triazol-3-yl)ethyl]phenyl]-2-[[(3S)-3-methyl-1-piperidyl]methyl]-4-(trifluoromethyl)-1H-pyrrolo[2,3-c]pyridin-7-one]?
**A.** IL-2 CFC=5/nM [1]: <500 nM; Ki (CBL-B protein): < 50 nM

**Q.** `CCN(CC)Cc1cc2c(C(F)(F)F)cn(-c3cccc([C@]4(c5nncn5C)C[C@@H](C)C4)c3)c(=O)c2[nH]1` [Compound T018, 2-((diethylamino)methyl)-6-(3-((1s,3s)-3-methyl-1-(4-methyl-4H-1,2,4-triazol-3-yl)cyclobutyl)phenyl)-4-(trifluoromethyl)-1,6-dihydro-7H-pyrrolo[2,3-c]pyridin-7-one] was tested. Which “IL-2 CFC=5/nM” value [1] did it give?
**A.** The value was under 500 nM.

**Q.** What about the Ki (CBL-B protein) of the same molecule?
**A.** The Ki was under 50 nM.

**Q.** Which results are given for `CCN(Cc1cc2c(C(F)(F)F)cn(-c3cccc(C4(c5nncn5C)CCC4)c3)c(=O)c2[nH]1)C(C)C` [Compound T019, 2-[[ethyl(isopropyl)amino]methyl]-6-[3-[1-(4-methyl-1,2,4-triazol-3-yl)cyclobutyl]phenyl]-4-(trifluoromethyl)-1H-pyrrolo[2,3-c]pyridin-7-one]?
**A.** IL-2 CFC=5/nM [1]: <500 nM; Ki (CBL-B protein): < 50 nM

**Q.** `Cn1cnnc1C1(c2cccc(-n3cc(C(F)(F)F)c4cc(CN5CCC6(CC6)C5)[nH]c4c3=O)c2)CCC1` [Compound T023, 2-(5-azaspiro[2.4]heptan-5-ylmethyl)-6-[3-[1-(4-methyl-1,2,4-triazol-3-yl)cyclobutyl]phenyl]-4-(trifluoromethyl)-1H-pyrrolo[2,3-c]pyridin-7-one] was tested. Which “IL-2 CFC=5/nM” value [1] did it give?
**A.** The value was under 500 nM.

**Q.** And the Ki (CBL-B protein)?
**A.** The Ki was under 50 nM.

**Q.** For `Cn1cnnc1C1(c2cccc(-n3cc(C(F)(F)F)c4cc(CN5CC[C@H]6C[C@H]6C5)[nH]c4c3=O)c2)CCC1` [Compound T024, 2-[[(1R,6R)-3-azabicyclo[4.1.0]heptan-3-yl]methyl]-6-[3-[1-(4-methyl-1,2,4-triazol-3-yl)cyclobutyl]phenyl]-4-(trifluoromethyl)-1H-pyrrolo[2,3-c]pyridin-7-one], which “IL-2 CFC=5/nM” value [1] is on record?
**A.** Its value is under 500 nM.

**Q.** What about the Ki (CBL-B protein) of the same molecule?
**A.** Its Ki is under 50 nM.

**Q.** What does the source list for `Cn1cnnc1C1(c2cccc(-n3cc(C(F)(F)F)c4cc(CN5CC[C@@H]6C[C@@H]6C5)[nH]c4c3=O)c2)CCC1` [Compound T025, 2-[[(1 S,6S)-3-azabicyclo[4.1.0]heptan-3-yl]methyl]-6-[3-[1-(4-methyl-1,2,4-triazol-3-yl)cyclobutyl]phenyl]-4-(trifluoromethyl)-1H-pyrrolo[2,3-c]pyridin-7-one]?
**A.** IL-2 CFC=5/nM [1]: <500 nM; Ki (CBL-B protein): < 50 nM

**Q.** Which “IL-2 CFC=5/nM” value [1] does the source give for `Cn1cnnc1C1(c2cccc(-n3cc(C(F)(F)F)c4cc(CN5CCC[C@H]6C[C@H]65)[nH]c4c3=O)c2)CCC1` [Compound T026, 2-(((1R,6S)-2-azabicyclo [4.1.0]heptan-2-yl)methyl)-6-(3-(1-(4-methyl-4H-1,2,4-triazol-3-yl)cyclobutyl)phenyl)-4-(trifluoromethyl)-1,6-dihydro-7H-pyrrolo[2,3-c]pyridin-7-one] here?
**A.** The value was under 500 nM.

**Q.** What about the Ki (CBL-B protein) of the same molecule?
**A.** The Ki was under 50 nM.

**Q.** With `Cn1cnnc1C1(c2cccc(-n3cc(C(F)(F)F)c4cc(CN5CCC[C@@H]6C[C@@H]65)[nH]c4c3=O)c2)CCC1` [Compound T027, 2-(((1 S,6R)-2-azabicyclo [4.1.0]heptan-2-yl)methyl)-6-(3-(1-(4-methyl-4H-1,2,4-triazol-3-yl)cyclobutyl)phenyl)-4-(trifluoromethyl)-1,6-dihydro-7H-pyrrolo[2,3-c]pyridin-7-one] as the molecule, how does the “IL-2 CFC=5/nM” value [1] read?
**A.** Its value is under 500 nM.

**Q.** And the Ki (CBL-B protein)?
**A.** The Ki was under 50 nM.

**Q.** For `Cn1cnnc1[C@]1(c2cccc(-n3cc(C(F)(F)F)c4cc(CN5CC6CC6C5)[nH]c4c3=O)c2)C[C@H](C)C1` (stereo partly drawn) [Compound T028, 2-((3-azabicyclo[3.1.0]hexan-3-yl)methyl)-6-(3-((1s,3s)-3-methyl-1-(4-methyl-4H-1,2,4-triazol-3-yl)cyclobutyl)phenyl)-4-(trifluoromethyl)-1,6-dihydro-7H-pyrrolo[2,3-c]pyridin-7-one], which “IL-2 CFC=5/nM” value [1] is on record?
**A.** The value was under 500 nM.

**Q.** What about the Ki (CBL-B protein) of the same molecule?
**A.** The Ki was under 50 nM.

**Q.** `CCCN(Cc1cc2c(C(F)(F)F)cn(-c3cccc([C@]4(c5nncn5C)C[C@@H](C)C4)c3)c(=O)c2[nH]1)C(C)C` [Compound T029, 2-((isopropyl(propyl)amino)methyl)-6-(3-((1s,3s)-3-methyl-1-(4-methyl-4H-1,2,4-triazol-3-yl)cyclobutyl)phenyl)-4-(trifluoromethyl)-1,6-dihydro-7H-pyrrolo[2,3-c]pyridin-7-one] was tested. Which “IL-2 CFC=5/nM” value [1] did it give?
**A.** Its value is under 500 nM.

**Q.** And the Ki (CBL-B protein)?
**A.** The Ki was under 50 nM.

**Q.** What does the source list for `C[C@H]1CCCN(Cc2cc3c(C4CC4)cn(-c4cccc(C5(c6nncn6C)CC6(CC6)C5)c4)c(=O)c3[nH]2)C1` [Compound T030, 4-cyclopropyl-2-[[(3S)-3-methyl-1-piperidyl]methyl]-6-[3-[5-(4-methyl-1,2,4-triazol-3-yl)spiro[2.3]hexan-5-yl]phenyl]-1H-pyrrolo[2,3-c]pyridin-7-one]?
**A.** IL-2 CFC=5/nM [1]: <500 nM; Ki (CBL-B protein): < 50 nM

**Q.** How did the “IL-2 CFC=5/nM” value [1] turn out when `C[C@H]1CCCN(Cc2cc3c(C(F)(F)F)cn(-c4cccc(C5(c6nncn6C)CCC5)c4)c(=O)c3[nH]2)C1` [Compound T033, 2-[[(3S)-3-methyl-1-piperidyl]methyl]-6-[3-[1-(4-methyl-1,2,4-triazol-3-yl)cyclobutyl]phenyl]-4-(trifluoromethyl)-1H-pyrrolo[2,3-c]pyridin-7-one] was run?
**A.** The value was under 500 nM.

**Q.** And the Ki (CBL-B protein)?
**A.** Its Ki is under 50 nM.

**Q.** What does the source list for `Cn1cnnc1C1(c2cccc(-n3cc(C(F)(F)F)c4cc(CNCCC5CCC5)[nH]c4c3=O)c2)CCC1` [Compound T034, 2-(((2-cyclobutylethyl)amino)methyl)-6-(3-(1-(4-methyl-4H-1,2,4-triazol-3-yl)cyclobutyl)phenyl)-4-(trifluoromethyl)-1,6-dihydro-7H-pyrrolo[2,3-c]pyridin-7-one]?
**A.** IL-2 CFC=5/nM [1]: <500 nM; Ki (CBL-B protein): < 50 nM
